Results published in patent US9302999B2, “Substituted triazoles as herbicides” (E. I. DU PONT DE NEMOURS AND COMPANY, priority 2012, dated 2016).

Tests used:
[1] = tested on: pigweed (Amaranthus retroflexus); experiment: Test A pre-/postemergence: pigweed; format: in vivo
How it was run: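 Visual 0–100 injury ratings (0 no effect, 100 complete control) taken about ten days after treatment, relative to untreated controls. Preemergence treatment was a directed soil spray; postemergence plants were 2–10 cm tall at one- to two-leaf stage. Soil: loam/sand blend.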

[2] = tested on: rice (Oryza sativa); experiment: Test B flooded paddy: rice; format: in vivo; settings: Flood, applied to paddy water at 2-leaf stage, visually evaluated after 13 to 15 days
How it was run: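 Greenhouse assay lasting 13 to 15 days. Treatment was into water flooding pots 3 cm deep, at the 2-leaf stage, with that level sustained afterwards. Scores compare treated with control plants visually, 100 denoting complete control and 0 no effect; a dash marks no test result.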

[3] = tested on: blackgrass (Alopecurus myosuroides); experiment: Test C pre-/postemergence: blackgrass; format: in vivo
How it was run: (§1)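 Visual injury scored 0–100 (100 = complete control) against untreated controls after 13–15 greenhouse days. Surfactant-containing solvent formulations applied either to soil after sowing (loam/sand) or over 1- to 4-leaf plants, 2–18 cm tall.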

[4] = tested on: winter wheat (Triticum aestivum); experiment: Test C pre-/postemergence: winter wheat; format: in vivo
How it was run: as §1

[5] = tested on: wild oat (Avena fatua); experiment: Test C pre-/postemergence: wild oat; format: in vivo; settings: Postemergence
How it was run: as §1

[6] = tested on: galium (catchweed bedstraw, Galium aparine); experiment: Test C pre-/postemergence: galium; format: in vivo
How it was run: as §1

[7] = tested on: morningglory (Ipomoea coccinea); experiment: Test C pre-/postemergence: morningglory; format: in vivo
How it was run: as §1

[8] = tested on: nutsedge, yellow (yellow nutsedge, Cyperus esculentus); experiment: Test C pre-/postemergence: nutsedge, yellow; format: in vivo
How it was run: as §1

[9] = tested on: pigweed (Amaranthus retroflexus); experiment: Test C pre-/postemergence: pigweed; format: in vivo
How it was run: as §1

[10] = tested on: ragweed (common ragweed, Ambrosia elation); experiment: Test C pre-/postemergence: ragweed; format: in vivo
How it was run: as §1

[11] = tested on: Barnyardgrass; experiment: Test C preemergence: barnyardgrass; format: in vivo, Echinochloa crus-galli
[12] = Postemergence, 125 g ai/ha, 0 to 100 scale, 0 is no effect, 100 is complete control
[13] = Preemergence, 125 g ai/ha, 0 to 100 scale where 0 is no effect and 100 is complete control
[14] = Preemergence, 500 g ai/ha, 0 to 100 scale (0 no effect, 100 complete control)
[15] = Postemergence, 31 g ai/ha, scale 0 to 100 (0 no effect, 100 complete control)
[16] = Postemergence, 62 g ai/ha, scale 0 to 100 (0 no effect, 100 complete control)
[17] = Postemergence, 125 g ai/ha, scale 0 to 100, 0 no effect, 100 complete control
[18] = Postemergence, 250 g ai/ha, scale 0 to 100
[19] = Preemergence, 31 g ai/ha, scale of 0 to 100, 0 is no effect, 100 is complete control
[20] = Preemergence, 62 g ai/ha, scale of 0 to 100, 0 is no effect, 100 is complete control
[21] = Preemergence, 125 g ai/ha, scale 0 to 100, 0 no effect, 100 complete control
[22] = Preemergence, 250 g ai/ha, scale 0 to 100, 0 no effect, 100 complete control
[23] = 31 g ai/ha, scale 0 to 100 (0 no effect, 100 complete control)
[24] = 62 g ai/ha, scale 0 to 100 (0 no effect, 100 complete control)
[25] = 125 g ai/ha, scale 0 to 100, 0 no effect, 100 complete control
[26] = 62 g ai/ha, scale of 0 to 100, 0 is no effect, 100 is complete control
[27] = Preemergence, 31 g ai/ha, scale 0 (no effect) to 100 (complete control)
[28] = Postemergence, 250 g ai/ha, scale 0 to 100 (0 no effect, 100 complete control)

Q: What does the source list for `CCc1nn(-c2ccc(C(F)(F)F)cc2)nc1Cc1ccnc(C(F)(F)F)c1` [Compound 155]?
A: Plant response rating, Pigweed [1, 12]: 100; Pigweed plant response rating ([1]; Postemergence, 500 g ai/ha, visual rating on 0 to 100 scale (0 no effect, 100 complete control), approximately ten days): 100; Plant response rating, Pigweed [1, 13]: 100; Plant response rating, Pigweed [1, 14]: 100; Plant response rating, Rice (0 to 100 scale, 0 is no effect, 100 is complete control) ([2]; 250 g ai/ha): 50; Plant response rating, Blackgrass [3, 15]: 40; Plant response rating, Blackgrass [3, 16]: 70; Plant response rating, Blackgrass [3, 17]: 85; Plant response rating, Blackgrass [3, 18]: 90; Plant response rating, Blackgrass [3, 19]: 90; Plant response rating, Blackgrass [3, 20]: 90; Plant response rating, Blackgrass [3, 21]: 90; Plant response rating, Blackgrass [3, 22]: 90; Plant response rating, Wheat [4, 15]: 15; Plant response rating, Wheat [4, 16]: 30; Plant response rating, Wheat [4, 17]: 35; Plant response rating, Wheat [4, 18]: 40; Plant response rating, Wheat [4, 20]: 5; Plant response rating, Wheat [4, 21]: 10; Plant response rating, Wheat [4, 22]: 35; Plant response rating, Oat, Wild [5, 23]: 40; Plant response rating, Oat, Wild [5, 24]: 45; Plant response rating, Oat, Wild [5, 25]: 75; Plant response rating, Oat, Wild ([5]; 250 g ai/ha, scale 0 to 100): 90; Plant response rating, Galium [6, 15]: 70; Plant response rating, Galium [6, 16]: 75; Plant response rating, Galium [6, 17]: 80; Plant response rating, Galium [6, 18]: 95; Plant response rating, Galium [6, 19]: 98; Plant response rating, Galium [6, 20]: 100; Plant response rating, Galium [6, 21]: 100; Plant response rating, Galium [6, 22]: 100; Plant response rating, Morningglory [7, 15]: 55; Plant response rating, Morningglory [7, 16]: 65; Plant response rating, Morningglory [7, 17]: 65; Plant response rating, Morningglory [7, 18]: 98; Plant response rating, Morningglory [7, 19]: 10; Plant response rating, Morningglory [7, 20]: 40; Plant response rating, Morningglory [7, 21]: 60; Plant response rating, Morningglory [7, 22]: 90; Plant response rating, Nutsedge, Yellow [8, 15]: 5; Plant response rating, Nutsedge, Yellow [8, 16]: 10; Plant response rating, Nutsedge, Yellow [8, 17]: 10; Plant response rating, Nutsedge, Yellow [8, 18]: 20; Plant response rating, Nutsedge, Yellow [8, 19]: 0; Plant response rating, Pigweed [9, 15]: 90; Plant response rating, Pigweed [9, 16]: 90; Plant response rating, Pigweed [9, 17]: 98; Plant response rating, Pigweed [9, 18]: 100; Plant response rating, Pigweed [9, 19]: 100; Plant response rating, Pigweed [9, 20]: 100; Plant response rating, Pigweed [9, 21]: 100; Plant response rating, Pigweed [9, 22]: 100; Plant response rating, Ragweed [10, 15]: 80; Plant response rating, Ragweed [10, 17]: 85; Plant response rating, Ragweed [10, 18]: 85; Plant response rating, Ragweed [10, 19]: 20; Plant response rating, Ragweed [10, 20]: 40; Plant response rating, Ragweed [10, 21]: 85; Plant response rating, Ragweed [10, 22]: 95; Plant response rating, Barnyardgrass ([11]; 31 g ai/ha, scale of 0 to 100, 0 is no effect, 100 is complete control): 40; Plant response rating, Barnyardgrass [11, 26]: 90; Plant response rating, Barnyardgrass [11, 25]: 98

Q: Which “Plant response rating, Pigweed” value [1, 12] does the source give for `CCOc1nn(-c2ccc(Cl)cc2)nc1Cc1ccnc(C(F)(F)F)c1` [Compound 188] here?
A: The value was 100.

Q: What about the “Pigweed plant response rating” value ([1]; Postemergence, 500 g ai/ha, 0 to 100 scale, 0 is no effect, 100 is complete control) of the same molecule?
A: The value was 100.

Q: What about the “Plant response rating, Pigweed” value [1, 13] of the same molecule?
A: Its value is 100.

Q: What about the “Plant response rating, Pigweed” value [1, 14] of the same molecule?
A: Its value is 100.

Q: And the “Plant response rating, Rice (0 to 100 scale, 0 is no effect, 100 is complete control)” value ([2]; 125 g ai/ha)?
A: The value was 50.

Q: And the “Plant response rating, Blackgrass” value [3, 15]?
A: The value was 55.

Q: And the “Plant response rating, Blackgrass” value [3, 16]?
A: The value was 55.

Q: What about the “Plant response rating, Blackgrass” value [3, 17] of the same molecule?
A: The value was 85.

Q: What about the “Plant response rating, Blackgrass” value [3, 18] of the same molecule?
A: Its value is 90.

Q: What about the “Plant response rating, Blackgrass” value [3, 27] of the same molecule?
A: Its value is 80.

Q: And the “Plant response rating, Blackgrass” value [3, 20]?
A: The value was 100.

Q: And the “Plant response rating, Blackgrass” value [3, 21]?
A: The value was 100.

Q: And the “Plant response rating, Blackgrass” value [3, 22]?
A: The value was 100.

Q: And the “Plant response rating, Wheat” value [4, 15]?
A: Its value is 20.

Q: What about the “Plant response rating, Wheat” value [4, 16] of the same molecule?
A: The value was 30.

Q: And the “Plant response rating, Wheat” value [4, 17]?
A: The value was 45.

Q: And the “Plant response rating, Wheat” value [4, 28]?
A: Its value is 50.

Q: And the “Plant response rating, Wheat” value [4, 27]?
A: Its value is 30.

Q: And the “Plant response rating, Wheat” value [4, 20]?
A: The value was 30.

Q: What about the “Plant response rating, Wheat” value [4, 21] of the same molecule?
A: The value was 35.

Q: And the “Plant response rating, Wheat” value [4, 22]?
A: The value was 40.

Q: And the “Plant response rating, Oat, Wild” value [5, 23]?
A: Its value is 45.

Q: What about the “Plant response rating, Oat, Wild” value [5, 24] of the same molecule?
A: Its value is 60.

Q: What about the “Plant response rating, Oat, Wild” value [5, 25] of the same molecule?
A: The value was 60.

Q: What about the “Plant response rating, Oat, Wild” value ([5]; 250 g ai/ha, scale 0 to 100 (0 no effect, 100 complete control)) of the same molecule?
A: Its value is 90.

Q: What about the “Plant response rating, Galium” value [6, 15] of the same molecule?
A: Its value is 60.

Q: What about the “Plant response rating, Galium” value [6, 16] of the same molecule?
A: Its value is 80.

Q: And the “Plant response rating, Galium” value [6, 17]?
A: The value was 85.

Q: What about the “Plant response rating, Galium” value [6, 28] of the same molecule?
A: Its value is 90.

Q: And the “Plant response rating, Galium” value [6, 27]?
A: The value was 90.

Q: And the “Plant response rating, Galium” value [6, 20]?
A: Its value is 90.

Q: What about the “Plant response rating, Galium” value [6, 21] of the same molecule?
A: The value was 95.

Q: And the “Plant response rating, Galium” value [6, 22]?
A: The value was 95.

Q: And the “Plant response rating, Morningglory” value [7, 15]?
A: The value was 70.

Q: And the “Plant response rating, Morningglory” value [7, 16]?
A: Its value is 100.

Q: And the “Plant response rating, Morningglory” value [7, 17]?
A: The value was 100.

Q: What about the “Plant response rating, Morningglory” value [7, 20] of the same molecule?
A: The value was 60.

Q: And the “Plant response rating, Morningglory” value [7, 21]?
A: The value was 85.

Q: And the “Plant response rating, Morningglory” value [7, 22]?
A: Its value is 100.

Q: What about the “Plant response rating, Nutsedge, Yellow” value [8, 15] of the same molecule?
A: The value was 10.

Q: And the “Plant response rating, Nutsedge, Yellow” value [8, 16]?
A: Its value is 10.

Q: What about the “Plant response rating, Nutsedge, Yellow” value [8, 17] of the same molecule?
A: Its value is 10.

Q: What about the “Plant response rating, Nutsedge, Yellow” value [8, 28] of the same molecule?
A: The value was 15.

Q: What about the “Plant response rating, Nutsedge, Yellow” value [8, 27] of the same molecule?
A: The value was 5.

Q: What about the “Plant response rating, Nutsedge, Yellow” value [8, 20] of the same molecule?
A: The value was 5.

Q: What about the “Plant response rating, Nutsedge, Yellow” value [8, 21] of the same molecule?
A: The value was 5.

Q: And the “Plant response rating, Nutsedge, Yellow” value [8, 22]?
A: Its value is 20.

Q: And the “Plant response rating, Pigweed” value [9, 15]?
A: The value was 95.

Q: And the “Plant response rating, Pigweed” value [9, 16]?
A: Its value is 95.

Q: And the “Plant response rating, Pigweed” value [9, 17]?
A: The value was 98.

Q: What about the “Plant response rating, Pigweed” value [9, 28] of the same molecule?
A: The value was 100.

Q: And the “Plant response rating, Pigweed” value [9, 27]?
A: The value was 100.

Q: And the “Plant response rating, Pigweed” value [9, 20]?
A: Its value is 100.

Q: And the “Plant response rating, Pigweed” value [9, 21]?
A: The value was 100.

Q: What about the “Plant response rating, Pigweed” value [9, 22] of the same molecule?
A: The value was 100.

Q: What about the “Plant response rating, Ragweed” value [10, 15] of the same molecule?
A: The value was 65.

Q: And the “Plant response rating, Ragweed” value [10, 16]?
A: The value was 75.

Q: What about the “Plant response rating, Ragweed” value [10, 17] of the same molecule?
A: The value was 85.

Q: What about the “Plant response rating, Ragweed” value [10, 28] of the same molecule?
A: The value was 85.

Q: What about the “Plant response rating, Barnyardgrass” value ([11]; 31 g ai/ha, scale 0 (no effect) to 100 (complete control)) of the same molecule?
A: The value was 80.

Q: What about the “Plant response rating, Barnyardgrass” value [11, 26] of the same molecule?
A: Its value is 100.

Q: What about the “Plant response rating, Barnyardgrass” value [11, 25] of the same molecule?
A: The value was 100.
